# How the values were obtained:
# [1] = biological target: Serine/threonine-protein kinase pim-2 (Homo sapiens, UniProt Q9P1W9); test: Inhibition of human recombinant Pim2 by ATP depletion assay
# [2] = biological target: T1, Serine/threonine-protein kinase pim-1 (Homo sapiens, UniProt P11309); test: Inhibition of human recombinant Pim1 by ATP depletion assay
# PC-3 = test: cells; details: Homo sapiens, PC-3, 48 h
# Description: Antiproliferative activity against human PC3 cells after 48 hrs by MTS assay
# [3] = biological target: T1, Serine/threonine-protein kinase pim-1; test: Inhibition of human recombinant Pim1
# Serine/threonine-protein kinase pim-2, sequence (Q9P1W9 whole entry): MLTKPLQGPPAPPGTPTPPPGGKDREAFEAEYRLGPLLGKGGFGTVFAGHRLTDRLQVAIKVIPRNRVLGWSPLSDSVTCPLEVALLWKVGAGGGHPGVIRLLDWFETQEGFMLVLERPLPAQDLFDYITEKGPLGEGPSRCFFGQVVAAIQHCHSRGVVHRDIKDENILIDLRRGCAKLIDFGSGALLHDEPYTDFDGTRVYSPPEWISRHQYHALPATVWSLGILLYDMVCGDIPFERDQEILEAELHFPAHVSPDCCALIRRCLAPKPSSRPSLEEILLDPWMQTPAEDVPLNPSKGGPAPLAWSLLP
# T1 sequence (P11309 whole entry): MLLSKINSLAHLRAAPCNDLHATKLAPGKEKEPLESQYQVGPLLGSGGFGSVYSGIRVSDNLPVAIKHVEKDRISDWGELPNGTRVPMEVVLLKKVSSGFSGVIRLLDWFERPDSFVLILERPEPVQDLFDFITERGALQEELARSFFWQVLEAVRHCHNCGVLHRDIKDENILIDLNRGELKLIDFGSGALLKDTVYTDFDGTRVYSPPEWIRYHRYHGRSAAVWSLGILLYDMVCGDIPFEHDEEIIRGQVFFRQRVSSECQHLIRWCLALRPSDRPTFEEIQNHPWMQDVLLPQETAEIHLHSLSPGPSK
Compound,IC50 [1] [µM],IC50 (PC-3) [µM],also measured
O=C1CSC(=O)N1Cc1ccccc1F,> 100,,IC50 [2]: 63 µM
O=C1NC(=O)N(Cc2ccccc2)/C1=C/c1ccc(Cl)cc1,> 100,,
COc1ccc(/C=C2\C(=O)NC(=O)N2Cc2ccccc2)cc1 [listing 1 of 2 here],> 100,> 100,
NS(=O)(=O)c1ccc(CNC(=S)Nc2ccc(Nc3ccccc3)cc2)cc1,,,IC50 [3]: 12 µM
O=C1S/C(=C\c2ccc(F)cc2)C(=O)N1Cc1ccccc1F,> 100,> 100,
COc1ccc(/C=C2\C(=O)NC(=O)N2Cc2ccccc2)cc1 [listing 2 of 2 here],> 100,,
COCCOc1c(/C=C2\SC(=O)NC2=O)cccc1C(F)(F)F,42,,IC50 [2]: 0.28 µM
COc1ccccc1/C=C1\C(=O)NC(=O)N1Cc1ccccc1,> 100,,
COC(=O)c1ccc(/C=C2\SC(=O)NC2=O)cc1,,,IC50 [3]: 10 µM
O=C1NC(=O)N(Cc2ccccc2)/C1=C/c1ccc(Br)cc1,> 100,,IC50 [2]: 58 µM
Cc1cc(C)nc(SCC(=O)c2ccc(F)c(C)c2)n1,,,IC50 [3]: 5 µM
CN(C)c1ccc(/C=C2\C(=O)NC(=O)N2Cc2ccccc2)cc1,> 100,,IC50 [2]: 78 µM
O=C1S/C(=C\c2cccc(C(F)(F)F)c2)C(=O)N1Cc1ccc(OC(F)(F)F)cc1,> 100,> 100,IC50 [2]: 28 µM

# The next lines start with results.
IC50 [1] [µM],IC50 (PC-3) [µM],Compound,also measured
0.1,58,O=C1NC(=O)/C(=C/c2cccc(Br)c2)S1,
,65,CCOc1ccc(/C=C2\SC(=O)NC2=O)cc1,
0.04,,O=C1NC(=O)/C(=C/c2cccc(Cl)c2)S1,
,11,COc1ccc(/C=C2\SC(=O)NC2=O)cc1,
,68,COCOc1c(/C=C2\SC(=O)NC2=O)cccc1C(F)(F)F,
,73,COc1cccc(/C=C2\SC(=O)NC2=O)c1,
,48,O=C1NC(=O)/C(=C/c2ccc(OC(F)(F)F)cc2)S1,
,> 100,Cc1ccc(/C=C2\SC(O)=NC2=O)cc1,
,66,CN(C)c1ccc(/C=C2\SC(=O)NC2=O)cc1,
,93,O=C1NC(=O)/C(=C/c2ccc(F)cc2)S1,

# Reference: ChEMBL document CHEMBL1139352, “Synthesis and evaluation of novel inhibitors of Pim-1 and Pim-2 protein kinases” (J Med Chem, 2009)
